Assay: Human HepG2 cell viability assay in 384 well format
Type: toxicity, cell-based
Parameters: dose 125 nL, time 70.5 hour; concentration not given beside the values
Settings: HepG2 cells, read-out: Inhibition

| SMILES | cytotoxicity at 70.5 h [%] |
| --- | --- |
| CC(Cn1cccn1)NC(=O)N1CCN(Cc2ccco2)CC1 (stereo not given) | 0.805 |
| Cc1ccoc1C(=O)N1CCCC(CNS(C)(=O)=O)C1 (stereo not given) | 18 |
| Cc1ccc(-c2ncc(C(=O)NCCNC(=O)C3CC3)s2)c(C)c1 | -6.37 |
| Cc1nc(C(C)C)sc1C(=O)NCCNc1ncccc1C#N | -1.44 |
| CC(=O)N1CCCN(C(=O)NC(C)Cn2cccn2)CC1 (stereo not given) | -3.94 |
| CN1N=C(C(=O)N2CCCC(n3cccn3)C2)CCC1=O (stereo not given) | -3.66 |
| COc1cc(C)nc(N2CCN(C(=O)c3cc(C)no3)CC2)n1 | 26.3 |
| Cc1ccc(-c2ncc(C(=O)NS(C)(=O)=O)s2)c(C)c1 | -1.13 |
| CN(Cc1cn(-c2ccccc2)nn1)C1CCCN(c2cccnn2)C1 (stereo not given) | -3.67 |
| Cc1nc(C)n(C2CCCN(C(=O)c3csc(C)n3)C2)n1 (stereo not given) | -5.49 |
| O=C(c1cc2cc(I)ccc2[nH]1)N1CCC(Nc2cccnn2)CC1 | 1.42 |
| CN(CCNC(=O)NCc1ccsc1)C1CCCC1 | -8.28 |
| CC(C)CCc1nc(CNCC2CN(C)CCO2)cs1 (stereo not given) | -1.37 |
| Cc1nccn1C1CCCN(C(=O)c2cccc(OCC(N)=O)c2)C1 (stereo not given) | -10.4 |
| Cc1nc(CNCC2CN(C3CC3)CCO2)cs1 (stereo not given) | 23.8 |
| Cc1nc(C2CCCN2C(=O)CCCn2cncn2)no1 (stereo not given) | -7.37 |
| Cn1cnc2c1CCN(Cc1csc(C3CCCCC3)n1)C2 | -14.4 |
| Cc1noc(C(C)C)c1C(=O)NCCCN1CCC(C)CC1 | -13 |
| Cc1noc(C(C)C)c1C(=O)NCCN1CCOCC1 | -17.9 |
| Cc1noc(C(C)C)c1C(=O)NCCC(=O)N1CCCCC1 | -19 |
| COCCN1CCN(CC(C)(O)c2cccc(C(F)(F)F)c2)CC1 (stereo not given) | -12.6 |
| COCc1nc(C(=O)N2CCCC(n3ccnc3C)C2)cs1 (stereo not given) | -18.6 |

| SMILES | cytotoxicity at 70.5 h [%] |
| --- | --- |
| CCc1n[nH]c(C2CN(C(=O)c3ccnc(C)n3)CCO2)n1 (stereo not given) | 13.5 |
| CN(C)c1ncccc1CNS(=O)(=O)c1ccc(F)cc1F | -12.9 |
| CC(=O)N1CCCN(C(=O)NCCOc2ccc3c(c2)OCO3)CC1 | -8.5 |
| CC(C)CS(=O)(=O)CC(=O)NC(C)c1nnc2n1CCC2 (stereo not given) | -2.61 |
| O=C(NCCOc1ccc2c(c1)OCO2)N1CCCC(CO)C1 (stereo not given) | -10 |
| Cc1nn(C)c(N(C)C)c1CNC(C)COc1ccccc1F (stereo not given) | -11.1 |
| CC(NC(=O)CCC1CCCCC1)c1nnc2n1CCC2 (stereo not given) | -4.91 |
| c1ccc(-n2ccc(CN3CCCCC3Cn3cncn3)n2)cc1 (stereo not given) | -12.9 |
| Cc1nccn1C1CCCN(C(=O)c2cccc(Cn3ccnc3)c2)C1 (stereo not given) | -1.32 |
| COCc1nc(C(=O)N2CCCC(n3ccnc3C(C)C)C2)cs1 (stereo not given) | -12.2 |
| CCn1nc2c(cc1=O)CN(CC(=O)Nc1nnc(C)s1)CC2 | -15 |
| CN1CCOC(CNCc2csc(C3CCCC3)n2)C1 (stereo not given) | -1.7 |
| CCc1nc(C2CCCN2C(=O)CCCn2cncn2)no1 (stereo not given) | -8.49 |
| Cc1nnc(NC(=O)CN2CCc3nn(C(C)C)c(=O)cc3C2)s1 | -6.14 |
| CC1CCCN(C(=O)CNC(=O)c2ccoc2)C1 (stereo not given) | 49.9 |
| Cc1cc(CN2CCCC(Cn3cncn3)C2)no1 (stereo not given) | 16 |
| CN(C)c1ccc(C(=O)N2CCCN(Cc3cscn3)CC2)nn1 | 27.8 |
| COc1ccc(-c2nnc(CNCCn3cc(C)cn3)o2)cc1 | 14.6 |
| CN1CCC/C1=N\S(=O)(=O)c1ccc(NC(=O)c2ccsc2)cc1 | -11.8 |
| Cc1ccc(C(=O)Nc2ccc(S(=O)(=O)/N=C3\CCCN3C)cc2)s1 | -10 |
| Cc1nc(CN2CCN(C(=O)c3ccnc(N(C)C)c3)CC2)cs1 | -14.4 |
| CN(C(=O)c1ccc(-n2ncc(C#N)c2N)cc1)C1CCCC1 | -1.19 |

| SMILES | cytotoxicity at 70.5 h [%] |
| --- | --- |
| CCc1ccsc1C(=O)N1CCN(CC(N)=O)CC1 | 13.8 |
| CCN(Cc1cccc2c1OCO2)C(=O)Nc1ccccn1 | -9.07 |
| Cc1cc(NC(=O)CN2CCC(N3CCNC3=O)CC2)on1 | -5.65 |
| CCc1ccsc1C(=O)N1CCN(CCN2C(=O)CCC2=O)CC1 | -3.69 |
| Cc1cnn(CC2CCCN2CC(=O)Nc2nccs2)c1 (stereo not given) | 3.35 |
| Cc1ccc(OCC(O)CN2CCC(Cn3cc(C)cn3)CC2)cc1 (stereo not given) | -0.66 |
| CCC(O)CN1CCN(C(=O)c2sccc2C2CC2)CC1 (stereo not given) | -2.13 |
| c1ccc(-c2cc(CN3CCCC(Cn4cncn4)C3)on2)cc1 (stereo not given) | -1.24 |
| Cc1cnn(CCNCc2nnc(-c3ccc(F)cc3)o2)c1 | -10.4 |
| Cc1cnn(CC2CCCN2CC(=O)Nc2cc(C)on2)c1 (stereo not given) | 0.558 |
| CC(C)c1nc(CN(C)C2CCN(Cc3nnc(C4CC4)o3)C2)no1 (stereo not given) | 1.8 |
| CCc1nc(CN(C)C2CCN(Cc3nnc(C4CCC4)o3)C2)no1 (stereo not given) | -0.232 |
| Cc1nc(CN(C)C2CCN(Cc3nnc(C4CC4)o3)C2)no1 (stereo not given) | 2.48 |
| Cc1cc(C)n(CC2CN(Cc3nc(C4CC4)no3)CCO2)n1 (stereo not given) | -4.87 |
| Cc1cc(C)n(CC2CN(Cc3noc(C)n3)CCO2)n1 (stereo not given) | 10.1 |
| c1ccc(CCCN2CCCC2Cn2cncn2)cc1 (stereo not given) | -3.86 |
| Fc1cccc(-c2nc(CN3CCOC(Cn4cccn4)C3)co2)c1 (stereo not given) | -11.5 |
| O=C(NCCN1CCOCC1)NCC(O)c1cccc(F)c1 (stereo not given) | -3.47 |
| Cc1nc(C)n(CC2CCCN(c3ncnc4c3CCC4)C2)n1 (stereo not given) | 26.1 |
| Cc1nn(C)c(Cl)c1C1CCCN1C(=O)c1cc(Cl)c[nH]1 (stereo not given) | -17.6 |
| O=C(O)c1ccc(S(=O)(=O)Nc2ccc(Cl)c(F)c2)c(F)c1 | -5.1 |
| COCCOc1ncccc1CNCc1c(C)nn(C)c1N(C)C | 2.93 |

| SMILES | cytotoxicity at 70.5 h [%] |
| --- | --- |
| c1cnc(-c2nc(CN3CCOC(Cn4cncn4)C3)cs2)nc1 (stereo not given) | 11.7 |
| CC(C)(C)c1nc(CN2CCCC(Cn3cncn3)C2)cs1 (stereo not given) | 25.2 |
| CCOC(=O)NC(C(=O)NCc1ccc(N2CCCCC2)nc1)C(C)C (stereo not given) | -8.83 |
| COCc1cccc(CNCc2c(C)nn(C)c2N(C)C)c1 | 42.4 |
| CCN(CC)C(C(=O)NCc1ccc(N2CCCC2)nc1)C(C)C (stereo not given) | 2.85 |
| Cc1ccc(NC(=O)N(C)Cc2cnn(C)c2)cc1OCC(F)F | 26.4 |
| Cc1csc(C2CCCN(C(=O)c3cnc4n[nH]c(C)c4c3)C2)n1 (stereo not given) | -10.8 |
| Cn1cc(C2CCCN2CCCc2nc(-c3cccs3)no2)cn1 (stereo not given) | -11.4 |
| Cc1cc(C)n(CC2CCCN2CC(=O)N(C)C)n1 (stereo not given) | -11.4 |
| c1cc(CN2CCCC(c3noc(C4CC4)n3)C2)no1 (stereo not given) | 3.46 |
| O=C(CCN1CCCC1c1cccs1)N1CCc2sccc2C1 (stereo not given) | -13.7 |
| O=C(COc1cccc(Br)c1)N1CCOCC1c1ncon1 (stereo not given) | -3.27 |
| Cc1cnn(CCC(=O)N2CCCC(c3nc(C)no3)C2)c1 (stereo not given) | 37.7 |
| CC(C)c1nc2n(n1)CC(NCc1nnnn1C1CC1)CC2 (stereo not given) | -5.21 |
| N#Cc1ccccc1CN1CCCCC1Cn1cncn1 (stereo not given) | -20 |
| Cc1nn(C)c(C)c1C1CCCN1CCCc1nc2ccccc2o1 (stereo not given) | -8.55 |
| COc1ccc(CCC(=O)Nc2cccnc2N2CCCC2)cc1Br | -5.48 |
| Cc1cc(C(=O)NCc2cccnc2OC(C)C)no1 | -31.2 |
| CC(NC(=O)CCOc1ccccc1Cl)c1nnc2n1CCC2 (stereo not given) | -16.2 |
